# Results from patent US20150352108A1, “AMINO-PYRIMIDINE COMPOUNDS AS INHIBITORS OF TBK1 AND/OR IKK EPSILON” (Alzheimer's Institute of America, priority 2009, published 2015).
# Where two headings read alike, the source gives them in different places.
# Assays:
# [1] = system: IKKε-mediated phosphorylation of IRF3; test: In-situ phosphorylation of IRF3 (pIRF3 Ser396 ELISA) in HEK293T cells cotransfected with IRF3 and IKKε; assay type: cell-based; settings: Homo sapiens, HEK-293T
# Outline: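 Cells for the IRF7 Western blots carried IRF7 and TBK1 plasmids, were seeded at 150,000/well, exposed to compound overnight and probed for pSer477/Ser479 IRF7. The ELISA readout used IRF3 + IKKε-cotransfected HEK293T at 20,000/well with 20 h treatment, quantifying pSer396 IRF3 relative to DMSO, plus a parallel CellTiter-Glo viability check.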
# TBK1 = molecular target: T1, TBK1 (Homo sapiens, UniProt Q9UHD2); test: In-vitro TBK1 kinase assay ([γ33]ATP filter-plate); assay type: biochemical
# T1 construct: His-tag; made in house; host or cells: Sf9 insect cells
# T1 sequence (Q9UHD2 1-729): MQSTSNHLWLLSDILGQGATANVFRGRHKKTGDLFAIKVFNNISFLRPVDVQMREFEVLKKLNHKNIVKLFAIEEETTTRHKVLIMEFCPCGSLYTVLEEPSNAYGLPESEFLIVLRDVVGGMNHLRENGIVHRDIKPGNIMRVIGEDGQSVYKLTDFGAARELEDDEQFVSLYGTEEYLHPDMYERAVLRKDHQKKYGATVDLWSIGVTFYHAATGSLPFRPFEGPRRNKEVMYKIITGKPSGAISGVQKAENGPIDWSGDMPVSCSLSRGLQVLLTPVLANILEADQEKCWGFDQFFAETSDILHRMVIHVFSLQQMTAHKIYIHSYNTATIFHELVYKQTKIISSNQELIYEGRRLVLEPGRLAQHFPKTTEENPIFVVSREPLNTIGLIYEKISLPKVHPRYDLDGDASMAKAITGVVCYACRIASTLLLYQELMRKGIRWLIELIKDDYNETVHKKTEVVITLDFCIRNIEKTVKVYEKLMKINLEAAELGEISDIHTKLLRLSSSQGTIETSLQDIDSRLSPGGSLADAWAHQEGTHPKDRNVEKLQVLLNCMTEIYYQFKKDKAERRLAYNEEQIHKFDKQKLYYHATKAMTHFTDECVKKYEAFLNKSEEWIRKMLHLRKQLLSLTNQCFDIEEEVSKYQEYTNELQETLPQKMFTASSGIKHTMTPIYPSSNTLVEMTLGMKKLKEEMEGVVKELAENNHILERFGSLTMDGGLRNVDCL
# Outline: (§1)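 His-tagged Sf9-expressed kinases at 0.1 or 0.02 μg/ml (TBK1) and 0.1 or 0.015 μg/ml (IKKε) for normal and sensitized formats, with myelin basic protein or casein substrate. ATP was at 2×Km (60 μM TBK1, 32 μM IKKε) plus 0.3 μCi [γ33]ATP. Reactions ran 30-45 min, were captured on P-81 filters, and counts were normalized to DMSO.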
# IKKε = molecular target: T2, IKKε (Homo sapiens, UniProt Q14164); test: In-vitro IKKε kinase assay ([γ33]ATP filter-plate); assay type: biochemical
# T2 construct: His-tag; made in house; host or cells: Sf9 insect cells
# T2 sequence (Q14164 1-716): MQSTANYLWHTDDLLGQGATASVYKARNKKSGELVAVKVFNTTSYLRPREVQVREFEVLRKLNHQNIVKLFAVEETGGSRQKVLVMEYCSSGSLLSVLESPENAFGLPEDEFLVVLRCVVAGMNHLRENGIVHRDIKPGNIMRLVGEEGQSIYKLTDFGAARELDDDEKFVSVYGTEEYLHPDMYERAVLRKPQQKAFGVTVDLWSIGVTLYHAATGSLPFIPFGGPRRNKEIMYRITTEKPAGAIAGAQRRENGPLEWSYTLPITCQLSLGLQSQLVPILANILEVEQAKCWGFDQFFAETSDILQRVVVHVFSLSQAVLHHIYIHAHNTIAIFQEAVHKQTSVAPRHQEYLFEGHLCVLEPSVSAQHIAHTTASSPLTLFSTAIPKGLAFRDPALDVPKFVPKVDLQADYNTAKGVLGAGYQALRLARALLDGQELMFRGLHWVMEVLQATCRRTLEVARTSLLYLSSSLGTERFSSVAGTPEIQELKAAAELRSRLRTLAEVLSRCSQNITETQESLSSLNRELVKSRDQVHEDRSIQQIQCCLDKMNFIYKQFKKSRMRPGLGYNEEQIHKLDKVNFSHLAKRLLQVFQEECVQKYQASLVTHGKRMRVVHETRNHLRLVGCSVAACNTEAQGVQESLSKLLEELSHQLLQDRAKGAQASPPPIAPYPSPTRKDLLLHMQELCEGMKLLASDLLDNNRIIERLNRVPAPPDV
# Outline: as §1
# [2] = HEK293T cells, 20 hours, text bins, read-out: IC50 for inhibition of the in-situ IKKε-mediated phosphorylation of IRF3
# [3] = text bins, read-out: IC50 for inhibition of the kinase activity of TBK1
# [4] = text bins, read-out: IC50 for inhibition of the kinase activity of IKKε
# [5] = HEK293T cells in culture, Table 3, read-out: pIRF3 ELISA IC50
Structure (SMILES),"IC50 [1, 2] [nM]",IC50 (TBK1; [3]) [nM],IC50 (IKKε; [4]) [nM],"IC50 [1, 5] [nM]","IC50 (TBK1; Table 3, read-out: TBK1 IC50) [nM]","IC50 (IKKε; Table 3, read-out: IKKε IC50) [nM]"
"COc1cc(Nc2nccc(-c3ccc(OC4CCOCC4)c(C#N)c3)n2)ccc1CN1CC(OC)C1 [compound 482, 5-[2-({3-Methoxy-4-[(3-methoxyazetidin-1-yl)methyl]phenyl}amino)pyrimidin-4-yl]-2-(tetrahydro-2H-pyran-4-yloxy)benzonitrile]",< 100,< 10,< 5,–,–,–
"COc1cc(Nc2nccc(-c3ccc(OC4CCOCC4)c(C#N)c3)n2)ccc1O [Example 262, 5-{2-[(4-hydroxy-3-methoxyphenyl)amino]pyrimidin-4-yl}-2-(tetrahydro-2H-pyran-4-yloxy)benzonitrile]",250 to 500,< 10,< 5,–,–,–
"CN(C)CCCNS(=O)(=O)c1ccc(Nc2nccc(-c3ccc(OC4CCOCC4)c(C#N)c3)n2)cc1 [Example 3, 4-({4-[3-cyano-4-(tetrahydro-2H-pyran-4-yloxy)phenyl]pyrimidin-2-yl}amino)-N-[3-(dimethylamino)propyl] benzenesulfonamide]",250 to 500,< 10,< 5,280,0.2,2.8
"COc1cc(Nc2nccc(-c3ccc(NC(=O)C(C)C)c(C#N)c3)n2)ccc1OCCCN1CCOCC1 [compound 434, N-{2-cyano-4-[2-({3-methoxy-4-[3-(morpholin-4-yl)propoxy]phenyl}amino)pyrimidin-4-yl]phenyl}-2-methylpropanamide]",< 100,< 10,5 to 50,–,–,–
"COCCNCc1ccc(Nc2nccc(-c3ccc(OC4CCOCC4)c(C#N)c3)n2)cc1 [compound 488, 5-{2-[(4-{[(2-methoxyethyl)amino]methyl}phenyl)amino]pyrimidin-4-yl}-2-(tetrahydro-2H-pyran-4-yloxy)benzonitrile]",< 100,< 10,< 5,–,–,–
"CN(C)CCNS(=O)(=O)c1ccc(Nc2nccc(-c3ccc(OC4CCOCC4)c(C#N)c3)n2)cc1 [compound 334, 4-({4-[3-cyano-4-(tetrahydro-2H-pyran-4-yloxy)phenyl]pyrimidin-2-yl}amino)-N-[2-(dimethylamino)ethyl] benzenesulfonamide]",100 to 250,< 10,< 5,–,–,–
"COc1ccc(Nc2nccc(-c3ccc(N(C)C)c(C#N)c3)n2)cc1OC [Example 206, 5-{2-[(3,4-Dimethoxyphenyl)amino]pyrimidin-4-yl}-2-(dimethylamino) benzonitrile]",250 to 500,< 10,< 5,–,–,–
"COc1cc(Nc2nccc(-c3ccc(OC4CCOCC4)c(C#N)c3)n2)ccc1C(=O)N1CCN(C(C)C)CC1 [compound 503, 5-{2-[(3-methoxy-4-{[4-(propan-2-yl)piperazin-1-yl]carbonyl}phenyl)amino]pyrimidin-4-yl}-2-(tetrahydro-2H-pyran-4-yloxy)benzonitrile]",< 100,< 10,< 5,–,–,–
"COc1cc(Nc2nccc(-c3ccc(OC4CCOCC4)c(C#N)c3)n2)ccc1CO [compound 498, 5-(2-{[4-(hydroxymethyl)-3-methoxyphenyl]amino}pyrimidin-4-yl)-2-(tetrahydro-2H-pyran-4-yloxy)benzonitrile]",< 100,< 10,< 5,–,–,–

# Now from value to compound:
"IC50 [1, 2] [nM]",IC50 (TBK1; [3]) [nM],IC50 (IKKε; [4]) [nM],"IC50 [1, 5] [nM]","IC50 (TBK1; Table 3, read-out: TBK1 IC50) [nM]","IC50 (IKKε; Table 3, read-out: IKKε IC50) [nM]",Structure (SMILES)
< 100,< 10,< 5,–,–,–,"N#Cc1cc(-c2ccnc(Nc3ccc(OCCCN4CCOCC4)cc3)n2)ccc1OC1CCOCC1 [compound 527, 5-[2-({4-[3-(morpholin-4-yl)propoxy]phenyl}amino)pyrimidin-4-yl]-2-(tetrahydro-2H-pyran-4-yloxy)benzonitrile]"
100 to 250,< 10,< 5,179,0.5,3.9,"CNS(=O)(=O)Cc1cccc(Nc2nccc(-c3ccc(OC4CCOCC4)c(C#N)c3)n2)c1 [compound 648, 1-[3-({4-[3-Cyano-4-(tetrahydro-2H-pyran-4-yloxy)phenyl]pyrimidin-2-yl}amino)phenyl]-N-methylmethane-sulfonamide]"
< 100,< 10,< 5,–,–,–,"Cc1ccc(Nc2nccc(-c3ccc(OC4CCOCC4)c(C#N)c3)n2)cc1OCCN [compound 559, 5-(2-{[3-(2-Aminoethoxy)-4-methylphenyl]amino}pyrimidin-4-yl)-2-(tetrahydro-2H-pyran-4-yloxy)benzonitrile]"
< 100,< 10,< 5,–,–,–,CCN(CC)CCOc1ccc(Nc2nccc(-c3ccc(OC4CCOCC4)c(C#N)c3)n2)cc1OC [compound 530]
250 to 500,< 10,< 5,276,0.4,2.4,"CN(C)S(=O)(=O)Cc1cccc(Nc2nccc(-c3ccc(OC4CCOCC4)c(C#N)c3)n2)c1 [compound 601, 1-[3-({4-[3-Cyano-4-(tetrahydro-2H-pyran-4-yloxy)phenyl]pyrimidin-2-yl}amino)phenyl]-N,N-dimethylmethane-sulfonamide]"
< 100,< 10,5 to 50,–,–,–,COCCNCc1ccc(Nc2nccc(-c3ccc(NC(=O)C4CC4)c(C#N)c3)n2)cc1OC [compound 556]
< 100,< 10,< 5,16.9,0.4,2,"N#Cc1cc(-c2ccnc(Nc3cccc(CN4CCN(CCO)CC4)c3)n2)ccc1OC1CCOCC1 [compound 625, 5-{2-[(3-{[4-(2-Hydroxyethyl)piperazin-1-yl]methyl}phenyl)amino]pyrimidin-4-yl}-2-(tetrahydro-2H-pyran-4-yloxy)benzonitrile]"
100 to 250,< 10,< 5,–,–,–,"N#Cc1cc(-c2ccnc(Nc3ccc(CN4CCN(CCO)CC4)cc3)n2)ccc1OC1CCOCC1 [compound 511, 5-{2-[(4-{[4-(2-hydroxyethyl)piperazin-1-yl]methyl}phenyl)amino]pyrimidin-4-yl}-2-(tetrahydro-2H-pyran-4-yloxy)benzonitrile]"
< 100,< 10,< 5,22.8,0.4,0.5,"COCCOC1CN(C(=O)c2ccc(Nc3nccc(-c4ccc(OC5CCOCC5)c(C#N)c4)n3)cc2OC)C1 [compound 632, 5-{2-[(3-Methoxy-4-{[3-(2-methoxyethoxy)azetidin-1-yl]carbonyl}phenyl)amino]pyrimidin-4-yl}-2-(tetrahydro-2H-pyran-4-yloxy)benzonitrile]"
–,< 10,< 5,1100,1.3,3,"N#Cc1cc(-c2ccnc(Nc3cccc(CS(=O)(=O)NCCO)c3)n2)ccc1NC(=O)C1CC1 [compound 627, N-(2-Cyano-4-{2-[(3-{[(2-hydroxyethyl)sulfamoyl]methyl}phenyl)amino]pyrimidin-4-yl}phenyl) cyclopropane-carboxamide]"
